Assay results: ChEMBL document CHEMBL5576104, “Design, synthesis, and anti-melanogenic efficacy of 2-mercaptobenzoxazoles with nanomolar tyrosinase activity inhibition” (Bioorg Med Chem, 2024)
Calls of active or inactive are those of the source. The rule behind the calls is not given here.

Columns and labels:
Mushroom tyrosinase [1] = molecular target: T1, Mushroom tyrosinase (Agaricus bisporus, UniProt O42713+Q00024+C7FF04+C7FF05); experiment: Inhibition of mushroom tyrosinase using L-DOPA as substrate incubated for 30 mins by absorbance based microplate reader analysis; format: protein assay
Mushroom tyrosinase [2] = molecular target: T1, Mushroom tyrosinase; experiment: Inhibition of mushroom tyrosinase using L-tyrosine as substrate incubated for 30 mins by absorbance based microplate reader analysis; format: protein assay
B16-F10 [3] = experiment: Cytotoxicity against mouse B16-F10 cells assessed as reduction in cell viability at <=20 uM incubated for 72 hrs by EZ-Cytox assay; format: toxicity, cell-based; conditions: b16-f10, 72 h
[4] = Cytotoxicity against human HaCaT cells assessed as cell viability at 20 uM incubated for 24 hrs by EZ-Cytox assay relative to control; format: toxicity, cell-based; conditions: read-out: Activity
[5] = Antioxidant activity assessed as ABTS radical scavenging activity at 100 uM preincubated under dark condition for 2 mins and measured every 1 min for 10 mins by absorbance based microplate reader analysis relative to control; format: functional; conditions: time 12.0 min
B16-F10 [6] = experiment: Antimelanogenic activity against IBMX/[…] stimulated mouse B16-F10 cells assessed as reduction in intracellular melanin content preincubated for 1 hr followed by IBMX/[…] addition and measured after 72 hrs by microplate reader analysis; format: functional, cell-based; conditions: dose 5-20 µM, time 73.0 hrs
[7] = molecular target: T2, Mushroom tyrosinase (Agaricus bisporus) (UniProt O42713+Q00024+C7FF04+C7FF05); experiment: Potency index, ratio of phenylthiourea IC50 to test compound IC50 for inhibition of mushroom tyrosinase; format: protein assay
[8] = molecular target: T3, Tyrosinase (Mus musculus) (UniProt P11344); experiment: Inhibition of tyrosinase activity in IBMX/[…] stimulated mouse B16-F10 cells preincubated for 1 hr followed by IBMX/[…] addition and measured after 72 hrs by microplate reader assay; format: cell-based; conditions: dose 5-20 µM, time 73.0 hrs
T3 sequence (whole entry): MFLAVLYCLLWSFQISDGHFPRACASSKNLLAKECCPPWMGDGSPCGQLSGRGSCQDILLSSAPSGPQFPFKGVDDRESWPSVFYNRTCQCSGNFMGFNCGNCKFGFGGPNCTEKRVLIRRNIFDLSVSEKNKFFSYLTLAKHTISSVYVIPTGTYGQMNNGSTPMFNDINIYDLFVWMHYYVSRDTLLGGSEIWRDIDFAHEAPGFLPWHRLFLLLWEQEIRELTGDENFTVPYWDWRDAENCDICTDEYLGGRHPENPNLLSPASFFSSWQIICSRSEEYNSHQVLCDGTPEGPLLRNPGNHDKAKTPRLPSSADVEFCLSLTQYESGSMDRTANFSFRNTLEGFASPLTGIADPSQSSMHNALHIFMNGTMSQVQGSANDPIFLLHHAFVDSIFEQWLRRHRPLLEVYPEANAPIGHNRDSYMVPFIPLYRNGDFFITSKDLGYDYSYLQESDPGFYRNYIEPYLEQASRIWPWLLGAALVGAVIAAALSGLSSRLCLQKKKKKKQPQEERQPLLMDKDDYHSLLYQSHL

HaCaT = experiment: Cytotoxicity against human HaCaT cells assessed as reduction in cell viability at 5 to 20 uM incubated for 24 hrs by EZ-Cytox assay; format: toxicity, cell-based; conditions: dose 5-20 µM
[9] = molecular target: T2, Mushroom tyrosinase (Agaricus bisporus); experiment: Inhibition of mushroom tyrosinase using L-DOPA as substrate at 500 nM incubated for 30 mins by absorbance based microplate reader analysis relative to control; format: protein assay
[10] = molecular target: T2, Mushroom tyrosinase (Agaricus bisporus); experiment: Inhibition of mushroom tyrosinase using L-DOPA as substrate at 500 nM incubated for 30 mins in presence of CuSO4 by absorbance based microplate reader analysis relative to control; format: protein assay
[11] = molecular target: T2, Mushroom tyrosinase (Agaricus bisporus); experiment: Mixed-type inhibition of mushroom tyrosinase using L-DOPA as substrate assessed as decrease in Vmax with increase in Km upto 0.2 uM using varying concentrations of substrate by Lineweaver-Burk plot analysis; format: protein assay
Mushroom tyrosinase [12] = molecular target: T1, Mushroom tyrosinase; experiment: Binding affinity to mushroom tyrosinase using L-DOPA as substrate assessed as inhibition constant by Dixon plot analysis; format: protein assay
[13] = molecular target: T2, Mushroom tyrosinase (Agaricus bisporus); experiment: Potency index, ratio of kojic acid IC50 to test compound IC50 for inhibition of mushroom tyrosinase using L-DOPA as substrate incubated for 30 mins by absorbance based microplate reader analysis; format: protein assay
[14] = Cytotoxicity against human HaCaT cells assessed as cell viability at 5 uM incubated for 24 hrs by EZ-Cytox assay relative to control; format: toxicity, cell-based; conditions: read-out: Activity
[15] = Cytotoxicity against human HaCaT cells assessed as cell viability at 10 uM incubated for 24 hrs by EZ-Cytox assay relative to control; format: toxicity, cell-based; conditions: read-out: Activity
[16] = molecular target: T2, Mushroom tyrosinase (Agaricus bisporus); experiment: Competitive inhibition of mushroom tyrosinase using L-DOPA as substrate assessed as increase in Km with constant Vmax upto 0.2 uM using varying concentrations of substrate by Lineweaver-Burk plot analysis; format: protein assay
[17] = molecular target: T2, Mushroom tyrosinase (Agaricus bisporus); experiment: Potency index, ratio of phenylthiourea IC50 to test compound IC50 for inhibition of mushroom tyrosinase using L-tyrosine as substrate incubated for 30 mins by absorbance based microplate reader analysis; format: protein assay
[18] = molecular target: T2, Mushroom tyrosinase (Agaricus bisporus); experiment: Mixed-type inhibition of mushroom tyrosinase using L-DOPA as substrate assessed as decrease in Vmax with increase in Km upto 1.8 uM using varying concentrations of substrate by Lineweaver-Burk plot analysis; format: protein assay

Row | IC50 (Mushroom tyrosinase [1]) [nM] | IC50 (Mushroom tyrosinase [2]) [nM] | Ratio IC50 [7] | inhibition [8] | inhibition [9] [%] | inhibition [10] [%] | inhibition [11] | Ki (Mushroom tyrosinase [12]) [nM] | Ratio IC50 [13] | inhibition [16] | Ratio IC50 [17] | inhibition [18] | Compound | Activity (B16-F10 [3]) | viability at 24 h, 20 µM [4] [%] | Activity [5] [%] | Activity (B16-F10 [6]) | Activity (HaCaT) | viability at 24 h, 5 µM [14] [%] | viability at 24 h, 10 µM [15] [%]
1 | 23840 | 14800 | – | – | – | – | – | – | – | – | – | – | O=[N+]([O-])c1cccc2oc(S)nc12 | Non-Toxic | 94 | 34 | – | – | – | –
2 | 80 | 130 | 2 | Dose-Dependent Effect | > 92 | 26 | Active | 98 | – | – | – | – | Cc1ccc2[nH]c(=S)oc2c1 | Non-Toxic | – | 49 | Dose-Dependent Effect | Non-Toxic | – | –
3 | 13760 | 12250 | – | Dose-Dependent Effect | – | – | – | – | – | – | – | – | O=[N+]([O-])c1ccc2nc(S)oc2c1 | Non-Toxic | – | 49 | Dose-Dependent Effect | Non-Toxic | – | –
4 | 2150 | 2850 | – | Dose-Dependent Effect | – | – | – | – | 16 | – | – | – | Cc1cccc2oc(S)nc12 | Non-Toxic | – | 49 | Dose-Dependent Effect | Non-Toxic | – | –
5 | – | – | – | – | – | – | – | – | – | – | – | – | Cc1c(C)c2c(c(C)c1O)CCC(C)(C(=O)O)O2 (stereo not given) | – | – | 49 | – | – | – | –
6 | 6250 | 2020 | – | – | – | – | – | – | – | – | – | – | S=c1[nH]c2ccc(Cl)cc2o1 | Non-Toxic | – | 49 | – | Non-Toxic | – | –
7 | 5810 | 2410 | – | – | – | – | – | – | – | – | – | – | O=[N+]([O-])c1ccc2oc(=S)[nH]c2c1 | Non-Toxic | 84 | 49 | – | – | 91 | 91
8 | 80 | 240 | – | – | > 92 | 26 | – | 58 | 440 | Active | – | – | Sc1nc2ccccc2o1 | Non-Toxic | – | 49 | – | Non-Toxic | – | –
9 | 90 | 100 | – | – | > 92 | 26 | – | 142 | – | – | 3 | Active | Cc1ccc2oc(=S)[nH]c2c1 | Non-Toxic | – | 49 | – | Non-Toxic | – | –
